In brackets after ≈: the same amount, converted by molar mass.
Assays:
[1] = tested on: Mycobacterium tuberculosis; experiment: Antitubercular activity against active stage of Mycobacterium tuberculosis H37Ra; assay type: functional
[2] = tested on: Mycobacterium tuberculosis; experiment: Antitubercular activity against dormant stage of Mycobacterium tuberculosis H37Ra; assay type: functional
[3] = tested on: HeLa; experiment: Cytotoxicity against human HeLa cells assessed as cell growth inhibition; assay type: functional
[4] = tested on: MCF7; experiment: Cytotoxicity against human MCF7 cells assessed as cell growth inhibition; assay type: functional
[5] = Cytotoxicity against HUVEC cells assessed as cell growth inhibition; assay type: toxicity, cell-based; conditions: human
[6] = Selectivity index, ratio of GI50 for cytotoxicity against human HeLa cells to MIC for antitubercular activity against active stage of Mycobacterium tuberculosis H37Ra; assay type: toxicity, cell-based; conditions: read-out: Selectivity Index
[7] = Selectivity index, ratio of GI50 for cytotoxicity against human HeLa cells to MIC for antitubercular activity against dormant stage of Mycobacterium tuberculosis H37Ra; assay type: toxicity, cell-based; conditions: read-out: Selectivity Index
[8] = Selectivity index, ratio of GI50 for cytotoxicity against human MCF7 cells to MIC for antitubercular activity against active stage of Mycobacterium tuberculosis H37Ra; assay type: toxicity, cell-based; conditions: read-out: Selectivity Index
[9] = Selectivity index, ratio of GI50 for cytotoxicity against human MCF7 cells to MIC for antitubercular activity against dormant stage of Mycobacterium tuberculosis H37Ra; assay type: toxicity, cell-based; conditions: read-out: Selectivity Index
[10] = Selectivity index, ratio of GI50 for cytotoxicity against HUVEC cells to MIC for antitubercular activity against active stage of Mycobacterium tuberculosis H37Ra; assay type: toxicity, cell-based; conditions: human, read-out: Selectivity Index
[11] = Selectivity index, ratio of GI50 for cytotoxicity against HUVEC cells to MIC for antitubercular activity against dormant stage of Mycobacterium tuberculosis H37Ra; assay type: toxicity, cell-based; conditions: human, read-out: Selectivity Index
[12] = tested on: Mycobacterium tuberculosis; experiment: Antimycobacterial activity against non replicating Mycobacterium tuberculosis by broth dilution method; assay type: functional
[13] = tested on: Mycobacterium tuberculosis; experiment: Antimycobacterial activity against Mycobacterium tuberculosis H37Rv ATCC 27294 by broth dilution method; assay type: functional
[14] = tested on: J774; experiment: Cytotoxicity against mouse J774 cells incubated for 24 hrs by MTT assay; assay type: toxicity, cell-based; conditions: j774, 24 h
[15] = tested on: Mycobacterium tuberculosis; experiment: Antimycobacterial activity against Mycobacterium tuberculosis H37Rv; assay type: functional
[16] = Cytotoxicity against Chinese hamster CHO-K1 cells assessed as inhibition of cell growth; assay type: toxicity, cell-based, Cricetulus griseus
[17] = Selectivity index, ratio of IC50 for cytotoxicity against Chinese hamster CHO-K1 cells to MIC for antimycobacterial activity against Mycobacterium tuberculosis H37Rv; assay type: toxicity, cell-based; conditions: read-out: Selectivity Index
[18] = Cytotoxicity against HEK293T cells assessed as reduction in cell viability; assay type: toxicity, cell-based, HEK-293T; conditions: human
[19] = tested on: Mycobacterium tuberculosis; experiment: Antitubercular activity against Mycobacterium tuberculosis H37Rv by resazurin microtitre assay; assay type: functional

## COC(=O)c1ccsc1NC(=O)[C@H]1CCCN1
[1]
  MIC: 10.8 µg/mL (≈ 42.6 µM)
[2]
  MIC: 8.78 µg/mL (≈ 34.5 µM)
[3]
  GI50: 91.4 µg/mL (≈ 359 µM)
[4]
  GI50: 179 µg/mL (≈ 704 µM)
[5]
  GI50: 95.8 µg/mL (≈ 377 µM)
[6]
  selectivity ratio: 8.43
[7]
  selectivity ratio: 10.4
[8]
  selectivity ratio: 16.5
[9]
  selectivity ratio: 20.4
[10]
  selectivity ratio: 8.84
[11]
  selectivity ratio: 10.9

## C[C@]1(Cn2cc(COc3ccc(OC(F)(F)F)cc3)nn2)Cn2cc([N+](=O)[O-])nc2O1
[12]
  MIC: 4 µg/mL (≈ 9.08 µM)
[13]
  MIC: 2 µg/mL (≈ 4.54 µM)
[14]
  Activity: > 40 µg/mL

## Sc1nnc(-c2cc3ccccc3o2)o1
[15]
  MIC: 1.3 µg/mL (≈ 5.96 µM)
[16]
  IC50: 34.4 µg/mL (≈ 158 µM)
[17]
  selectivity ratio: 26.4

## C[C@]1(Cn2cc(-c3ccc(C(F)(F)F)cc3)nn2)Cn2cc([N+](=O)[O-])nc2O1
[12]
  MIC: 8 µg/mL (≈ 20.3 µM)
[13]
  MIC: 2 µg/mL (≈ 5.07 µM)
[14]
  Activity: > 40 µg/mL

## O=C(OC1CCCCC1)c1ccsc1NC(=O)[C@@H]1CCCN1
[1]
  MIC: 24.6 µg/mL (≈ 76.4 µM)
[2]
  MIC: 4.92 µg/mL (≈ 15.3 µM)
[3]
  GI50: 92.8 µg/mL (≈ 288 µM)
[4]
  GI50: 162 µg/mL (≈ 504 µM)
[5]
  GI50: 137 µg/mL (≈ 426 µM)
[6]
  selectivity ratio: 3.76
[7]
  selectivity ratio: 18.9
[8]
  selectivity ratio: 6.59
[9]
  selectivity ratio: 33
[10]
  selectivity ratio: 5.57
[11]
  selectivity ratio: 27.9

## O=C1CC[C@@H](COC(=O)c2ccsc2NC(=O)[C@@H]2CCCN2)N1
[1]
  MIC: 9.46 µg/mL (≈ 28 µM)
[2]
  MIC: 6.67 µg/mL (≈ 19.8 µM)
[3]
  GI50: 191 µg/mL (≈ 566 µM)
[4]
  GI50: 148 µg/mL (≈ 437 µM)
[5]
  GI50: 88.6 µg/mL (≈ 263 µM)
[6]
  selectivity ratio: 20.2
[7]
  selectivity ratio: 28.6
[8]
  selectivity ratio: 15.6
[9]
  selectivity ratio: 22.1
[10]
  selectivity ratio: 9.36
[11]
  selectivity ratio: 13.3

## O=C(OCC(F)(F)F)c1ccsc1NC(=O)[C@@H]1CCCN1
[1]
  MIC: 8.23 µg/mL (≈ 25.5 µM)
[2]
  MIC: 1.08 µg/mL (≈ 3.35 µM)
[3]
  GI50: 109 µg/mL (≈ 339 µM)
[4]
  GI50: 89.7 µg/mL (≈ 278 µM)
[5]
  GI50: > 250 µg/mL
[6]
  selectivity ratio: 13.3
[7]
  selectivity ratio: 101
[8]
  selectivity ratio: 10.9
[9]
  selectivity ratio: 83
[10]
  selectivity ratio: > 30.4
[11]
  selectivity ratio: > 231

## CC(C)c1ccc(OCc2cn(C[C@@]3(C)Cn4cc([N+](=O)[O-])nc4O3)nn2)cc1
[12]
  MIC: 1 µg/mL (≈ 2.51 µM)
[13]
  MIC: 0.5 µg/mL (≈ 1.25 µM)
[14]
  Activity: > 40 µg/mL

## S=c1[nH]nc(-c2ccccc2)o1
[15]
  MIC: 2.2 µg/mL (≈ 12.3 µM)
[16]
  IC50: 33.3 µg/mL (≈ 187 µM)
[17]
  selectivity ratio: 15.1

## CC(=O)N1/C(=C/c2ccc(-c3ccc(OC(F)(F)F)cc3)cc2)C(=O)c2ccccc21
[15]
  MIC90: 1.44 µM (≈ 0.61 µg/mL)
  MIC99: 3.19 µM (≈ 1.35 µg/mL)
[18]
  CC50: 8 µM

## COC(=O)c1ccsc1NC(=O)[C@@H]1CCCN1
[1]
  MIC: 12 µg/mL (≈ 47.1 µM)
[2]
  MIC: 3.35 µg/mL (≈ 13.2 µM)
[3]
  GI50: > 250 µg/mL
[4]
  GI50: > 250 µg/mL
[5]
  GI50: > 250 µg/mL
[6]
  selectivity ratio: > 20.9
[7]
  selectivity ratio: > 74.6
[8]
  selectivity ratio: > 20.9
[9]
  selectivity ratio: > 74.6
[10]
  selectivity ratio: > 20.9
[11]
  selectivity ratio: > 74.6

## O=C(OCC(Cl)(Cl)Cl)c1ccsc1NC(=O)[C@@H]1CCCN1
[1]
  MIC: 20.4 µg/mL (≈ 54.9 µM)
[2]
  MIC: 16.1 µg/mL (≈ 43.3 µM)
[3]
  GI50: > 250 µg/mL
[4]
  GI50: > 250 µg/mL
[5]
  GI50: > 250 µg/mL
[6]
  selectivity ratio: > 12.3
[7]
  selectivity ratio: > 15.5
[8]
  selectivity ratio: > 12.3
[9]
  selectivity ratio: > 15.5
[10]
  selectivity ratio: > 12.3
[11]
  selectivity ratio: > 15.5

## C[C@]1(Cn2cc(-c3ccc(F)cc3F)nn2)Cn2cc([N+](=O)[O-])nc2O1
[12]
  MIC: 8 µg/mL (≈ 22.1 µM)
[13]
  MIC: 1 µg/mL (≈ 2.76 µM)
[14]
  Activity: > 40 µg/mL

## Sc1nnc(-c2cc(Br)co2)o1
[15]
  MIC: 1.5 µg/mL (≈ 6.07 µM)
[16]
  IC50: 35.5 µg/mL (≈ 144 µM)
[17]
  selectivity ratio: 25.6

## C[C@]1(Cn2cc(-c3ccc(F)cc3)nn2)Cn2cc([N+](=O)[O-])nc2O1
[12]
  MIC: 2 µg/mL (≈ 5.81 µM)
[13]
  MIC: 1 µg/mL (≈ 2.9 µM)
[14]
  Activity: > 40 µg/mL

## CC(=O)N1/C(=C/c2ccccc2)C(=O)c2cc(-c3ccccc3)ccc21
[15]
  MIC90: 1.24 µM (≈ 0.421 µg/mL)
  MIC99: 1.39 µM (≈ 0.472 µg/mL)
[18]
  CC50: 12 µM

## Cc1nc(C)c(-c2nnc(S)o2)s1
[15]
  MIC: 1.3 µg/mL (≈ 6.1 µM)
[16]
  IC50: 21.7 µg/mL (≈ 102 µM)

## Cc1ccc(OCc2cn(C[C@@]3(C)Cn4cc([N+](=O)[O-])nc4O3)nn2)cc1
[12]
  MIC: 2 µg/mL (≈ 5.4 µM)
[13]
  MIC: 1 µg/mL (≈ 2.7 µM)
[14]
  Activity: > 40 µg/mL

## CCN(CC)CCOc1c(C(=O)OC)c2c3c(oc2c2ccccc12)C(=O)c1ccccc1C3=O
[19]
  MIC50: 0.19 µg/mL (≈ 0.403 µM)

## CC(=O)N1/C(=C/c2ccc(-c3ccc(F)cc3)cc2)C(=O)c2ccccc21
[15]
  MIC90: 1.26 µM (≈ 0.45 µg/mL)
  MIC99: 1.98 µM (≈ 0.708 µg/mL)
[18]
  CC50: 9 µM

## C[C@]1(Cn2cc(CN3CCOCC3)nn2)Cn2cc([N+](=O)[O-])nc2O1
[12]
  MIC: 1 µg/mL (≈ 2.86 µM)
[13]
  MIC: 2 µg/mL (≈ 5.72 µM)
[14]
  Activity: > 40 µg/mL

## CC(=O)N1/C(=C/c2ccc(NC(C)C)cc2)C(=O)c2ccccc21
[15]
  MIC90: > 20 µM
  MIC99: > 20 µM
[18]
  CC50: 19 µM

Reference: ChEMBL document CHEMBL5244273, “Tuberculosis: An Overview of the Immunogenic Response, Disease Progression, and Medicinal Chemistry Efforts in the Last Decade toward the Development of Potential Drugs for Extensively Drug-Resistant Tuberculosis Strains” (J Med Chem, 2021)
